How the values were obtained:
[1] = background section; cited from earlier work
[2] = test system: L1210 leukemia; assay: S.C. implanted L1210 leukemia in mice (CD2F1); format: in vivo
From the text: ^a Experimental formulation of mitindomide was used (NaOH + manitol).

[3] = test system: certain experimental tumor systems; settings: Pettit et al, Can. J. Chem. 61, 2291-2294 (1983); cited from earlier work
[4] = test system: L1210 leukemia; assay: IP implanted L1210 leukemia in mice (CD2F1); format: in vivo
[5] = 18.0 mg/kg ip days 1-9, Expt. 1
[6] = 18.0 mg/kg ip days 1-9, Expt. 2
[7] = 30.0 mg/kg ip days 1-9, Expt. 1
[8] = 30.0 mg/kg ip days 1-9, Expt. 2
[9] = 50.0 mg/kg ip days 1-9, Expt. 1
[10] = 50.0 mg/kg ip days 1-9, Expt. 2
[11] = 83.3 mg/kg ip days 1-9, Expt. 1
[12] = 18.0 mg/kg IP days 1-9, Expt. 1
[13] = 18.0 mg/kg IP days 1-9, Expt. 2
[14] = 18.0 mg/kg IP days 1-9, Expt. 3
[15] = 30.0 mg/kg IP days 1-9, Expt. 1
[16] = 30.0 mg/kg IP days 1-9, Expt. 2
[17] = 30.0 mg/kg IP days 1-9, Expt. 3
[18] = 50.0 mg/kg IP days 1-9, Expt. 1
[19] = 50.0 mg/kg IP days 1-9, Expt. 2
[20] = 50.0 mg/kg IP days 1-9, Expt. 3
[21] = 83.3 mg/kg IP days 1-9, Expt. 1
[22] = 83.3 mg/kg IP days 1-9, Expt. 2
[23] = 83.3 mg/kg IP days 1-9, Expt. 3

In the case of O=C1NC(=O)[C@H]2[C@H]3C=C[C@@H]([C@@H]12)[C@@H]1[C@H]2C(=O)NC(=O)[C@H]2[C@H]31 [Mitindomide, 4,8-Ethenopyrrolo[3',4':3,4]cyclobut[1,2-f]-isoindole-1,3,5,7(2H,6H) tetrone, octahydro], the solubility in water [1] is listed as “virtually insoluble in water”, the ILS [2, 5] is listed as 21% and the MST [2, 5] is listed as 10.0 days. The “Wt. Change” value [2, 5] was 0.0 g, the ILS [2, 6] was 12% and the MST [2, 6] was 12.0 days. For the same compound, the “Wt. Change” value [2, 6] was -0.1 g, the ILS [2, 7] was 50% and the MST [2, 7] was 12.3 days. For the same compound, the “Wt. Change” value [2, 7] was -3.8 g, the ILS [2, 8] was 42% and the MST [2, 8] was 15.3 days. For the same compound, the “Wt. Change” value [2, 8] was -1.6 g, the ILS [2, 9] was 92% and the MST [2, 9] was 15.8 days. The “Wt. Change” value [2, 9] was -4.3 g, the ILS [2, 10] was 136% and the MST [2, 10] was 25.3 days. For the same compound, the “Wt. Change” value [2, 10] was -4.2 g, the ILS [2, 11] was 6% and the MST [2, 11] was 8.7 days. For the same compound, the “Wt. Change” value [2, 11] was -5.6 g, the “Wt. Change” value ([2]; 83.3 mg/kg ip days 1-9, Expt. 2) was -5.6 g and the “inhibitory activity against certain experimental tumor systems” value [3] was “strong inhibitory activity”. For the same compound, the ILS [4, 12] was 3%, the MST [4, 12] was 9.0 days and the “Wt. Change” value [4, 12] was 2.3 g. For the same compound, the ILS [4, 13] was 10%, the MST [4, 13] was 8.8 days and the “Wt. Change” value [4, 13] was -0.7 g. The ILS [4, 14] was 13%, the MST [4, 14] was 9.3 days and the “Wt. Change” value [4, 14] was 0.3 g. For the same compound, the ILS [4, 15] was 49%, the MST [4, 15] was 13.0 days and the “Wt. Change” value [4, 15] was 1.2 g. The ILS [4, 16] was 66%, the MST [4, 16] was 13.3 days and the “Wt. Change” value [4, 16] was -3.1 g. The ILS [4, 17] was 86%, the MST [4, 17] was 15.3 days and the “Wt. Change” value [4, 17] was -2.2 g. For the same compound, the ILS [4, 18] was 60%, the MST [4, 18] was 14.0 days and the “Wt. Change” value [4, 18] was 0.2 g. For the same compound, the ILS [4, 19] was 103%, the MST [4, 19] was 16.3 days and the “Wt. Change” value [4, 19] was -3.9 g. The ILS [4, 20] was 156%, the MST [4, 20] was 21.0 days and the “Wt. Change” value [4, 20] was -2.8 g. For the same compound, the ILS [4, 21] was 6%, the MST [4, 21] was 9.3 days and the “Wt. Change” value [4, 21] was -2.5 g. The ILS [4, 22] was 12%, the MST [4, 22] was 9.0 days and the “Wt. Change” value [4, 22] was -5.8 g. The ILS [4, 23] was -3%, the MST [4, 23] was 8.0 days and the “Wt. Change” value [4, 23] was -4.5 g. The “Wt. Change” value ([4]; 138.9 mg/kg IP days 1-9, Expt. 1) was -5.6 g and the “Wt. Change” value ([4]; 138.9 mg/kg IP days 1-9, Expt. 3) was -5.5 g.

Source: patent publication US4670461A, “Formaldehyde derivatives of mitindomide” (priority 1984, dated 1987)
